Laboratory results published in patent US10071081B2, “Compositions of 1,2,4-oxadiazole benzoic acid compounds and methods for their use” (PTC Therapeutics, Inc., priority 2003, dated 2018).

System: luciferase reporter construct containing a UGA premature termination codon
Assay: cell-based luciferase reporter assay
Parameters: species or system Human; key to Activity: *****: both extremely high potency and extremely high efficacy of protein synthesis; ****: extremely high potency of protein synthesis and very high efficacy; ****: very high potency of protein synthesis and extremely high efficacy; ***: both very high potency and very high efficacy of protein synthesis; **: very high potency of protein synthesis and significant efficacy; **: significant potency of protein synthesis and very high efficacy; *: significant potency and efficacy of protein synthesis
Details: ranking combining potency and efficacy of protein synthesis; UGA luciferase reporter stably transfected in 293T Human Embryonic Kidney cells
Method: Activity measurements in Table I were performed in a cell-based luciferase reporter assay (as described in Section 4.2) comprising a luciferase reporter construct containing a UGA premature termination codon that was stably transfected in 293T Human Embryonic Kidney cells. A small molecule, 3-[3-(4-Isopropyl-phenyl)-2,5-dioxo-imidazolidin-1-yl]-benzoic acid, known to allow readthrough of premature termination codons was used was used as an internal standard. Activity measurements are based on the qualitative relation between the minimum concentration of compound required to produce a given protein in a cell (potency) and the maximum amount of protein produced by the cell (efficacy). Potency and efficacy activities are ranked as either extremely high, very high or significant. The combination of these activities is used to determine the activity ranking.
Two assays were developed for use in high throughput screens to identify small molecules that promote nonsense suppression. Each assay utilized luciferase because it is a functional reporter gene assay (light is only produced if the protein is functional) and it is extremely sensitive (Light intensity is proportional to luciferase concentration in the nM range). The first assay is a cell-based luciferase reporter assay and the second is a biochemical assay consisting of rabbit reticulocyte lysate and a nonsense-containing luciferase reporter mRNA. In the cell-based assay, a luciferase reporter construct containing a UGA premature termination codon was stably transfected in 293T Human Embryonic Kidney cells. In the biochemical assay, mRNA containing a UGA premature termination codon was used as a reporter in an in vitro translation reaction using rabbit reticulocyte lysate supplemented with tRNA, hemin, creatine kinase, amino acids, KOAc, Mg(OAc)2, and creatine phosphate. […] Synthetic mRNA was prepared in vitro using the T7 promoter and the MegaScript in vitro transcription kit (Ambion).
To determine whether compounds also function in vivo, a stable cell line harboring the UGA nonsense-containing luciferase gene was treated with selected compounds. Cells were grown in standard medium supplemented with 1% penicillin-streptomycin (P/S) and 10% fetal bovine serum (FBS) to 70% confluency and split 1:1 the day before treatment. On the following day, cells were trypsinized and 40,000 cells were added to each well of a 96-well tissue culture dish. Serial dilutions of each compound were prepared to generate a six-point dose response curve spanning 2 logs (30 μM to 0.3 μM). The final concentration of the DMSO solvent remained constant at 1% in each well. Cells treated with 1% DMSO served as the background standard, and cells treated with gentamicin served as a positive control.

`COCCOCCOCCOC(=O)c1cccc(-c2noc(-c3ccccc3F)n2)c1` [Compound 89, 3-[5-(2-Fluoro-phenyl)-[1,2,4]oxadiazol-3-yl]-benzoic acid 2-[2-(2-methoxy-ethoxy)-ethoxy]-ethyl ester] was tested, and the Activity was “**”.

`O=C(O)c1cccc(-c2noc(C3CCCCC3)n2)c1` [Compound 09, 3-(5-Cyclohexyl-[1,2,4]oxadiazol-3-yl)-benzoic acid] was tested, and the Activity was “****”.

In the case of `O=C(O)c1cccc(-c2noc(-c3cccs3)n2)c1` [Compound 29, 3-(5-Thiophen-2-yl-[1,2,4]oxadiazol-3-yl)-benzoic acid], the Activity was “****”.

`O=C(O)c1ccc(F)c(-c2noc(-c3ccc(F)cc3)n2)c1` [Compound 71, 4-Fluoro-3-[5-(4-fluoro-phenyl)-[1,2,4]oxadiazol-3-yl]-benzoic acid] was tested, and the Activity was “*”.

With `O=C(O)c1cccc(-c2noc(-c3ccc4c(c3)OC(F)(F)O4)n2)c1` [Compound 70, 3-[5-(2,2-Difluoro-benzo[1,3]dioxol-5-yl)-[1,2,4]oxadiazol-3-yl]-benzoic acid] the Activity was “***”.

For `O=C(O)c1cccc(-c2noc(-c3cc(F)ccc3F)n2)c1` [Compound 44, 3-[5-(2,5-Difluoro-phenyl)-[1,2,4]oxadiazol-3-yl]-benzoic acid], the Activity was “****”.

`Cc1cccc(-c2nc(-c3cccc(C(=O)O)c3)no2)c1` [Compound 40, 3-(5-m-Tolyl-[1,2,4]oxadiazol-3-yl)-benzoic acid] was tested, and the Activity was “*****”.

In the case of `O=C(O)c1cccc(-c2noc(-c3ccccc3F)n2)c1` [Compound 28, 3-[5-(2-Fluoro-phenyl)-[1,2,4]oxadiazol-3-yl]-benzoic acid], the Activity was “*****”.

`O=C(O)c1cccc(-c2noc(C3CCC3)n2)c1` [Compound 60, 3-(5-Cyclobutyl-[1,2,4]oxadiazol-3-yl)-benzoic acid] was tested, and the Activity was “**”.

In the case of `O=C(O)c1cccc(-c2noc(-c3c(O)cccc3F)n2)c1` [Compound 85, 3-[5-(2-Fluoro-6-hydroxy-phenyl)-[1,2,4]oxadiazol-3-yl]-benzoic acid], the Activity was “**”.

In the case of `[N-]=[N+]=Nc1ccc(-c2nc(-c3cccc(C(=O)O)c3)no2)cc1` [Compound 94, 3-[5-(4-Azido-phenyl)-[1,2,4]oxadiazol-3-yl]-benzoic acid], the Activity was “*****”.

`O=C(O)c1cccc(-c2noc(-c3ccc(Br)cc3F)n2)c1` [Compound 74, 3-[5-(4-Bromo-2-fluoro-phenyl)-[1,2,4]oxadiazol-3-yl]-benzoic acid] was tested, and the Activity was “***”.

In the case of `COc1cc(-c2nc(-c3cccc(C(=O)O)c3)no2)cc(OC)c1OC` [Compound 10, 3-[5-(3,4,5-Trimethoxy-phenyl)-[1,2,4]oxadiazol-3-yl]-benzoic acid], the Activity was “***”.

In the case of `CSc1ncccc1-c1nc(-c2cccc(C(=O)O)c2)no1` [Compound 69, 3-[5-(2-Methylsulfanyl-pyridin-3-yl)-[1,2,4]oxadiazol-3-yl]-benzoic acid], the Activity was “****”.

For `CC(C)c1nc(-c2cccc(C(=O)O)c2)no1` [Compound 15, 3-(5-Isopropyl-[1,2,4]oxadiazol-3-yl)-benzoic acid], the Activity was “****”.

In the case of `O=C(O)c1cccc(-c2noc(Cc3ccccc3)n2)c1` [Compound 42, 3-(5-Benzyl-[1,2,4]oxadiazol-3-yl)-benzoic acid], the Activity was “***”.

With `O=C(O)c1cccc(-c2noc(-c3cccc(F)c3F)n2)c1` [Compound 67, 3-[5-(2,3-Difluoro-phenyl)-[1,2,4]oxadiazol-3-yl]-benzoic acid] the Activity was “****”.

With `COc1ccc(-c2nc(-c3cccc(C(=O)O)c3)no2)cc1OC` [Compound 62, 3-[5-(3,4-Dimethoxy-phenyl)-[1,2,4]oxadiazol-3-yl]-benzoic acid] the Activity was “****”.

`COCCOC(=O)c1cccc(-c2noc(-c3ccccc3F)n2)c1` [Compound 87, 3-[5-(2-Fluoro-phenyl)-[1,2,4]oxadiazol-3-yl]-benzoic acid 2-methoxy-ethyl ester] was tested, and the Activity was “***”.

In the case of `Cc1ccsc1-c1nc(-c2cccc(C(=O)O)c2)no1` [Compound 50, 3-[5-(3-Methyl-thiophen-2-yl)-[1,2,4]oxadiazol-3-yl]-benzoic acid], the Activity was “*****”.

In the case of `COc1ccc(-c2nc(-c3cccc(C(=O)O)c3)no2)cc1` [Compound 12, 3-[5-(4-Methoxy-phenyl)-[1,2,4]oxadiazol-3-yl]-benzoic acid], the Activity was “*****”.

In the case of `COc1cccc(-c2nc(-c3cccc(C(=O)O)c3)no2)c1` [Compound 20, 3-[5-(3-Methoxy-phenyl)-[1,2,4]oxadiazol-3-yl]-benzoic acid], the Activity was “****”.

With `Cc1ccc(-c2nc(-c3cccc(C(=O)O)c3)no2)cc1` [Compound 04, 3-(5-p-Tolyl-[1,2,4]oxadiazol-3-yl)-benzoic acid] the Activity was “*****”.

In the case of `O=C(O)c1cccc(-c2noc(-c3ccccc3Cl)n2)c1` [Compound 46, 3-[5-(2-Chloro-phenyl)-[1,2,4]oxadiazol-3-yl]-benzoic acid], the Activity was “*****”.

With `CN(C)c1cccc(-c2nc(-c3cccc(C(=O)O)c3)no2)c1` [Compound 66, 3-[5-(3-Dimethylamino-phenyl)-[1,2,4]oxadiazol-3-yl]-benzoic acid] the Activity was “****”.

With `C/C=C/c1nc(-c2cccc(C(=O)O)c2)no1` [Compound 30, 3-(5-Propenyl-[1,2,4]oxadiazol-3-yl)-benzoic acid] the Activity was “****”.

In the case of `CC(C)(C)c1nc(-c2cccc(C(=O)O)c2)no1` [Compound 22, 3-(5-tert-Butyl-[1,2,4]oxadiazol-3-yl)-benzoic acid], the Activity was “*”.

`O=C(O)c1cccc(-c2noc(-c3ccc(N4CCCCC4)nc3)n2)c1` [Compound 84, 3-[5-(3,4,5,6-Tetrahydro-2H-[1,2′]bipyridinyl-5′-yl)-[1,2,4]oxadiazol-3-yl]-benzoic acid] was tested, and the Activity was “****”.

In the case of `O=C(O)c1cccc(-c2noc(Cc3ccc(Cl)cc3)n2)c1` [Compound 33, 3-[5-(4-Chloro-benzyl)-[1,2,4]oxadiazol-3-yl]-benzoic acid], the Activity was “****”.

For `O=C(O)c1cccc(-c2noc(-c3ccc(-n4cccc4)cc3)n2)c1` [Compound 41, 3-[5-(4-Pyrrol-1-yl-phenyl)-[1,2,4]oxadiazol-3-yl]-benzoic acid], the Activity was “****”.

For `CC(=O)N1CCC(c2nc(-c3cccc(C(=O)O)c3)no2)CC1` [Compound 64, 3-[5-(1-Acetyl-piperidin-4-yl)-[1,2,4]oxadiazol-3-yl]-benzoic acid], the Activity was “*”.

For `O=C(O)c1cccc(-c2noc(-c3ccc4c(c3)OCO4)n2)c1` [Compound 14, 3-(5-Benzo[1,3]dioxol-5-yl-[1,2,4]oxadiazol-3-yl)-benzoic acid], the Activity was “*****”.

With `O=C(O)c1cccc(-c2noc(-c3ccc([N+](=O)[O-])cc3)n2)c1` [Compound 11, 3-[5-(4-Nitro-phenyl)-[1,2,4]oxadiazol-3-yl]-benzoic acid] the Activity was “****”.

`O=C(O)c1cccc(-c2noc(-c3cccc(OC(F)(F)F)c3)n2)c1` [Compound 47, 3-[5-(3-Trifluoromethoxy-phenyl)-[1,2,4]oxadiazol-3-yl]-benzoic acid] was tested, and the Activity was “****”.

With `O=C(O)c1cccc(-c2noc(-c3cccnc3Cl)n2)c1` [Compound 63, 3-[5-(2-Chloro-pyridin-3-yl)-[1,2,4]oxadiazol-3-yl]-benzoic acid] the Activity was “****”.

With `O=C(OCCOCCOCCOCCOCCOCCO)c1cccc(-c2noc(-c3ccccc3F)n2)c1` [Compound 92, 3-[5-(2-Fluoro-phenyl)-[1,2,4]oxadiazol-3-yl]-benzoic acid 2-[2-(2-{2-[2-(2-hydroxy-ethoxy)-ethoxy]-ethoxy}-ethoxy)-ethoxy]-ethyl ester] the Activity was “***”.

`COCCOCCOCCOCCOCCOC(=O)c1cccc(-c2noc(-c3ccccc3F)n2)c1` [Compound 91, 3-[5-(2-Fluoro-phenyl)-[1,2,4]oxadiazol-3-yl]-benzoic acid 2-(2-{2-[2-(2-methoxy-ethoxy)-ethoxy]-ethoxy}-ethoxy)-ethyl ester] was tested, and the Activity was “***”.

With `O=C(O)c1cccc(-c2noc(-c3ccc(OCc4ccccc4)cc3)n2)c1` [Compound 95, 3-[5-(4-Benzyloxy-phenyl)-[1,2,4]oxadiazol-3-yl]-benzoic acid] the Activity was “*”.

In the case of `Cc1cc(-c2nc(-c3cccc(C(=O)O)c3)no2)c(C)o1` [Compound 49, 3-[5-(2,5-Dimethyl-furan-3-yl)-[1,2,4]oxadiazol-3-yl]-benzoic acid], the Activity was “****”.
